Experimental findings from ChEMBL document CHEMBL4406818, “Xanthone derivatives from the leaves of Garcinia oligantha” (2019) are described below.

The source made the active and inactive calls. No cut-off for these calls is given here.

Assay [1] relates to LNCaP. Nature of the assay: Cytotoxicity against quiescent human LNCAP cells assessed as induction of cell death at 20 uM measured after 24 hrs by SYBR green dye based fluorescence analysis. It is filed as functional.
The subject of assay [2] is LNCaP. Nature of the assay: Induction of cell death in quiescent human LNCAP cells assessed as proportion of dead cells at 20 uM measured after 24 hrs by propidium iodide staining based flow cytometry analysis (reference value: 4.90 %). It is filed as functional.
Assay [3] deals with LNCaP. The experiment in a line: Induction of cell death in quiescent human LNCAP cells assessed as proportion of live cells at 20 uM measured after 24 hrs by propidium iodide staining based flow cytometry analysis (reference value: 95.1%). The format is functional. (A flow cytometer gives signals particle by particle.)
Assay [4] concerns LNCaP. Nature of the assay: Cytotoxicity against quiescent human LNCAP cells assessed as induction of cell death measured after 24 hrs by […] dye based fluorescence analysis. It is filed as functional.
The subject of assay [5] is LNCaP. The experiment in a line: Induction of apoptosis in quiescent human LNCAP cells assessed as chromatin condensation at periphery of nucleus at 5 to 12 uM measured after 24 hrs by Hoechst staining based fluorescent microscopy. It is filed as functional, cell-based.
Assay [6] concerns LNCaP. The experiment in a line: Induction of apoptosis in quiescent human LNCAP cells assessed as nucleus fragmentation at 5 to 12 uM measured after 24 hrs by Hoechst staining based fluorescent microscopy. The format is functional, cell-based.
Assay [7] deals with LNCaP. Nature of the assay: Induction of cell death in quiescent human LNCAP cells assessed as proportion of dead cells at 5 uM measured after 24 hrs by propidium iodide staining based flow cytometry analysis (reference value: 4.90 %). The format is functional.
Assay [8] deals with LNCaP. The experiment in a line: Induction of cell death in quiescent human LNCAP cells assessed as proportion of dead cells at 7.5 uM measured after 24 hrs by propidium iodide staining based flow cytometry analysis (reference value: 4.90 %). The format is functional.
Assay [9] concerns LNCaP. Nature of the assay: Induction of cell death in quiescent human LNCAP cells assessed as proportion of dead cells at 10 uM measured after 24 hrs by propidium iodide staining based flow cytometry analysis (reference value: 4.90 %). It is filed as functional.
The subject of assay [10] is LNCaP. The experiment in a line: Induction of apoptosis in quiescent human LNCAP cells assessed as decrease in Bcl-2 protein expression at 8 to 12 uM measured after 24 hrs by Western blot analysis. The format is functional, cell-based. Background: In western blotting, separated proteins are transferred to a membrane and probed.
Assay [11] deals with LNCaP. The experiment in a line: Induction of apoptosis in quiescent human LNCAP cells assessed as decrease in caspase-3 protein expression at 8 to 12 uM measured after 24 hrs by Western blot analysis. It is filed as functional, cell-based.
Assay [12] deals with LNCaP. The experiment in a line: Induction of apoptosis in quiescent human LNCAP cells assessed as decrease in caspase-9 protein expression at 8 to 12 uM measured after 24 hrs by Western blot analysis. The format is functional, cell-based.
The subject of assay [13] is LNCaP. Nature of the assay: Induction of apoptosis in quiescent human LNCAP cells assessed as increase in caspase-3 activity at 8 to 12 uM measured after 24 hrs. The format is functional, cell-based.
Assay [14] deals with LNCaP. The experiment in a line: Induction of cell death in quiescent human LNCAP cells assessed as proportion of live cells at 5 uM measured after 24 hrs by propidium iodide staining based flow cytometry analysis (reference value: 95.1%). It is filed as functional.
Assay [15] concerns LNCaP. Nature of the assay: Induction of cell death in quiescent human LNCAP cells assessed as proportion of live cells at 7.5 uM measured after 24 hrs by propidium iodide staining based flow cytometry analysis (reference value: 95.1%). The format is functional.
The test system of assay [16] is LNCaP. Nature of the assay: Induction of cell death in quiescent human LNCAP cells assessed as proportion of live cells at 10 uM measured after 24 hrs by propidium iodide staining based flow cytometry analysis (reference value: 95.1%). It is filed as functional.
The test system of assay [17] is LNCaP. The experiment in a line: Induction of apoptosis in quiescent human LNCAP cells assessed as chromatin condensation at periphery of nucleus at 5 to 12 uM measured after 24 hrs by phase contrast microscopy. It is filed as functional, cell-based.
In assay [18] the test system is LNCaP. Nature of the assay: Induction of apoptosis in quiescent human LNCAP cells assessed as nucleus fragmentation at 5 to 12 uM measured after 24 hrs by phase contrast microscopy. The format is functional, cell-based.

Turning to `CC(C)=CCCC(C)(O)[C@@H]1C[C@@]23CC=C(C)CO[C@]2(O1)C(=O)c1oc2c4c(cc(O)c2c(=O)c13)OC(C)(C)C=C4` (stereo partly specified), the result with LNCaP [1] was Active.
Take `CC(=O)O[C@H]1C(=O)[C@@]2(C)[C@H]([C@H](OC(=O)c3ccccc3)[C@]3(O)C[C@H](OC(=O)[C@H](O)[C@@H](NC(=O)c4ccccc4)c4ccccc4)C(C)=C1C3(C)C)[C@]1(OC(C)=O)CO[C@@H]1C[C@@H]2O` [PACLITAXEL]: the outcome with LNCaP [1] was inactive. Besides, the Activity in the assay with LNCaP [2] was 7.08%; with LNCaP [3], 92.9%.
As to `CC(C)=CCCC(C)(O)[C@@H]1C[C@@]2(CC=C(C)C)C(=C(O)C(=O)c3oc4c5c(cc(O)c4c(=O)c32)OC(C)(C)C=C5)O1` (stereo partly specified), the outcome in the assay with LNCaP [1] was Active.
As to `COC(=O)[C@]1(O)C(=O)[C@](CC=C(C)C)(C/C=C(\C)CCC=C(C)C)c2c1oc1c(CC=C(C)C)c(O)cc(O)c1c2=O`, the Activity entry was “Dose-dependent effect” in the assay on LNCaP [4]; 12.4% in the assay with LNCaP [7]; 50.1% in the assay with LNCaP [8]; 70.1% with LNCaP [9]; 87.6% with LNCaP [14]; 49.9% in the assay with LNCaP [15]. In the assay with LNCaP [16], the Activity is 29.9%. Besides, the result in the assay with LNCaP [1], with LNCaP [5], in the assay on LNCaP [6], in the assay on LNCaP [10], in the assay on LNCaP [11] and in the assay with LNCaP [12] was Active. Besides, the result in the assay on LNCaP [13], with LNCaP [17] and with LNCaP [18] was Active.
For `COC(=O)C12OC(=O)C(CC=C(C)C)(CC=C(C)C)C1C(=O)c1c(O)cc3c(c1O2)C=CC(C)(C)O3` (racemic), in the assay with LNCaP [1], the outcome was Active.
The same measure, in the same setting: in the case of `COC(=O)c1oc2c(CC=C(C)C)c(O)cc(O)c2c(=O)c1C(CC=C(C)C)(CC=C(C)C)C(=O)O` it was “Active”; in that of `CC(C)=CCC/C(C)=C/C[C@@]12C[C@H](C(C)(C)O)OC1=C(O)C(=O)c1oc3c4c(cc(O)c3c(=O)c12)OC(C)(C)C=C4`, “Active”; in that of `CC(C)=CCc1c(O)cc(O)c2c(=O)c3c(oc12)C(=O)[C@@]1(O)C(=O)[C@]3(CC=C(C)C)C[C@@H]2C(C)(C)CCC[C@]21C`, “Active”.
With `COC(=O)C1(O)C(=O)C(CC=C(C)C)(CC=C(C)C)c2c1oc1c3c(cc(O)c1c2=O)OC(C)(C)C=C3` (stereo unspecified), the outcome with LNCaP [1] was Active.
